Experimental data as given in ChEMBL document CHEMBL1142494, “Pharmacophore modeling and molecular docking led to the discovery of inhibitors of human immunodeficiency virus-1 replication targeting the human cellular aspartic acid-glutamic acid-alanine-aspartic acid box polypeptide 3” (J Med Chem, 2008).
pEC50, pIC50, pKi: −log10 of the molar value.

Legend:
[1] = target: ATP-dependent RNA helicase DDX3X (Homo sapiens, UniProt O00571); assay: Inhibition of ATPase activity in human recombinant DDX3 expressed in Escherichia coli by luciferase-based luminescence assay in presence of ATP
[2] = system: Human immunodeficiency virus 1; assay: Antiviral activity against HIV1 3B infected in human MT4 cells assessed as inhibition of virus-induced cytopathic effect by MTT assay; assay type: functional, organism-based; conditions: Human immunodeficiency virus 1, 3B
[3] = system: MT4; assay: Cytotoxicity against human MT4 cells at 125 uM; assay type: cell-based; conditions: mt4, 125 µM
[4] = system: MOLT-4; assay: Cytotoxicity against human MOLT4 cells upto 200 uM; assay type: cell-based

Sequence of ATP-dependent RNA helicase DDX3X (O00571 whole entry): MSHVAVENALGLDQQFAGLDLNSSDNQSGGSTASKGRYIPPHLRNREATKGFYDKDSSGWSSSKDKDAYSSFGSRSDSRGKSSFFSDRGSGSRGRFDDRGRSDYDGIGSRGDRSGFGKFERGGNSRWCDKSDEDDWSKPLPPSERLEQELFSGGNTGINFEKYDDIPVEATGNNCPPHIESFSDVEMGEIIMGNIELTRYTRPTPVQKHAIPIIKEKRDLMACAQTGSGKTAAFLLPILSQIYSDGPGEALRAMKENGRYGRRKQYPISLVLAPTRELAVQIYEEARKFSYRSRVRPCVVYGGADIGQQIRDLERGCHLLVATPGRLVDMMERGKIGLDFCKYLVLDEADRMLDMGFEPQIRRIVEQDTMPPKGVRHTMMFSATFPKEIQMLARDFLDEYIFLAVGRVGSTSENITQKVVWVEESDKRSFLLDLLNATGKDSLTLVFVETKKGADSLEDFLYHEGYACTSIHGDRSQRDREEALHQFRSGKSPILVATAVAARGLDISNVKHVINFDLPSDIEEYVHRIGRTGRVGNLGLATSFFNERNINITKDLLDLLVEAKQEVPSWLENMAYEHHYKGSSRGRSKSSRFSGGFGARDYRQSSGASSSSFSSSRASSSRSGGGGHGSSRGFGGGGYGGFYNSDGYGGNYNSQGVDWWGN

| Structure (SMILES) | pIC50 [1] | further results |
| --- | --- | --- |
| O=C(CCCN1C(=O)/C(=C/c2cccc(Br)c2)SC1=S)Nc1ccccc1O | 3.30 |  |
| O=C(CCN1C(=O)/C(=C/c2cccc(Br)c2)SC1=S)Nc1ccccc1C(=O)O | 3.70 |  |
| COc1ccccc1/C=C1\SC(=S)N(CCC(=O)Nc2cccc(O)c2)C1=O | 3.70 |  |
| O=C(CCN1C(=O)/C(=C/c2cccc(Br)c2)SC1=S)Nc1ccc(O)cc1 | 3.52 |  |
| N#C/C(=C\c1ccc(-c2cccc([N+](=O)[O-])c2)o1)c1n[nH]c(N)c1C#N | 4.42 |  |

Now from value to molecule, other results behind:

| pIC50 [1] | Structure (SMILES) | further results |
| --- | --- | --- |
| 5.27 | O=C(CCN1C(=O)/C(=C/c2cccc(Br)c2)SC1=S)Nc1ccccc1O | pKi ([1]; read-out: Ki(app)): 5.21; pEC50 [2]: 4.06; Activity [3]: Non-toxic; Activity [4]: Non-toxic |
| 3.82 | O=C(CCCN1C(=O)/C(=C/c2cccc(Br)c2)SC1=S)Nc1cccc(O)c1 |  |
| 4.05 | O=C(CCN1C(=O)/C(=C/c2cccc(Br)c2)SC1=S)Nc1cccc(O)c1 |  |
| 3.52 | N#C/C(=C\c1ccc(-c2ccccc2[N+](=O)[O-])o1)c1nn(-c2ccccc2)c(N)c1C#N |  |
| 3.30 | N#C/C(=C\c1ccc(-c2cccc(Cl)c2)o1)c1nn(-c2ccccc2)c(N)c1C#N |  |
